Experimental data reported in ChEMBL document CHEMBL1201862, “PubChem BioAssay data set” (2004).
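1) Cells in 96-well plates. 2) Compound, 48 h, 5 concentrations. 3) Linear interpolation between surrounding doses. 4) Unreached endpoint = highest concentration. GI50 is the concentration that inhibits growth by half.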 Activity calls are given as the source filed them. Rule as the data show it: active = GI50 up to about 1.1 µM and inactive = higher.

What was measured:
Test in all cases: inhibition of tumour cell growth, NCI panel, 48 h
[1] = tested on: 786-0
[2] = tested on: A498
[3] = tested on: A549
[4] = tested on: ACHN
[5] = tested on: BT-549
[6] = tested on: CAKI-1
[7] = tested on: CCRF-CEM
[8] = tested on: COLO 205
[9] = tested on: DU-145
[10] = tested on: EKVX
[11] = tested on: HCC 2998
[12] = tested on: HCT-116
[13] = tested on: HCT-15
[14] = tested on: HL-60
[15] = tested on: HOP-62
[16] = tested on: HOP-92
[17] = tested on: HT-29
[18] = tested on: Hs-578T
[19] = tested on: IGROV-1
[20] = tested on: K562
[21] = tested on: KM12
[22] = tested on: LOX IMVI
[23] = tested on: M14
[24] = tested on: MCF7
[25] = tested on: MDA-MB-231
[26] = tested on: MDA-MB-435
[27] = tested on: MDA-N
[28] = tested on: MOLT-4
[29] = tested on: NCI-H226
[30] = tested on: NCI-H23
[31] = tested on: NCI-H460
[32] = tested on: NCI-H522
[33] = tested on: NCI/ADR-RES
[34] = tested on: OVCAR-3
[35] = tested on: OVCAR-4
[36] = tested on: OVCAR-5
[37] = tested on: OVCAR-8
[38] = tested on: PC-3
[39] = tested on: RPMI-8226
[40] = tested on: RXF 393
[41] = tested on: SF-268
[42] = tested on: SF-295
[43] = tested on: SF-539
[44] = tested on: SK-MEL-2
[45] = tested on: SK-MEL-5
[46] = tested on: SK-OV-3
[47] = tested on: SN12C
[48] = tested on: SNB-19
[49] = tested on: SNB-75
[50] = tested on: SW-620
[51] = tested on: T47D
[52] = tested on: TK-10
[53] = tested on: U-251
[54] = tested on: UACC-257
[55] = tested on: UACC-62
[56] = tested on: UO-31
[57] = tested on: SK-MEL-28
[58] = tested on: SR
[59] = tested on: Malme-3M

CC1=CC(=O)/C(=C/NC(=S)Nc2ccccc2)C(=O)O1
GI50 [1]: > 100 µM (inactive)
GI50 [2]: > 100 µM (inactive)
GI50 [3]: > 100 µM (inactive)
GI50 [4]: > 100 µM (inactive)
GI50 [5]: > 100 µM (inactive)
GI50 [6]: > 100 µM (inactive)
GI50 [7]: > 100 µM (inactive)
GI50 [8]: > 100 µM (inactive)
GI50 [9]: > 100 µM (inactive)
GI50 [10]: > 100 µM (inactive)
GI50 [11]: > 100 µM (inactive)
GI50 [12]: > 100 µM (inactive)
GI50 [13]: > 100 µM
GI50 [14]: > 100 µM (inactive)
GI50 [15]: > 100 µM (inactive)
GI50 [16]: > 100 µM (inactive)
GI50 [17]: > 100 µM (inactive)
GI50 [18]: > 100 µM (inactive)
GI50 [19]: > 100 µM (inactive)
GI50 [20]: > 100 µM (inactive)
GI50 [21]: > 100 µM (inactive)
GI50 [22]: > 100 µM (inactive)
GI50 [23]: > 100 µM (inactive)
GI50 [24]: > 100 µM (inactive)
GI50 [25]: > 100 µM (inactive)
GI50 [26]: > 100 µM (inactive)
GI50 [27]: > 100 µM (inactive)
GI50 [28]: > 100 µM (inactive)
GI50 [29]: > 100 µM (inactive)
GI50 [30]: > 100 µM (inactive)
GI50 [31]: > 100 µM (inactive)
GI50 [32]: 53.3 µM (inactive)
GI50 [33]: > 100 µM (inactive)
GI50 [34]: > 100 µM (inactive)
GI50 [35]: > 100 µM (inactive)
GI50 [36]: > 100 µM (inactive)
GI50 [37]: > 100 µM (inactive)
GI50 [38]: > 100 µM (inactive)
GI50 [39]: > 100 µM (inactive)
GI50 [40]: 40.7 µM (inactive)
GI50 [41]: > 100 µM (inactive)
GI50 [42]: > 100 µM (inactive)
GI50 [43]: > 100 µM (inactive)
GI50 [44]: > 100 µM (inactive)
GI50 [45]: > 100 µM (inactive)
GI50 [46]: > 100 µM (inactive)
GI50 [47]: > 100 µM (inactive)
GI50 [48]: > 100 µM (inactive)
GI50 [49]: > 100 µM (inactive)
GI50 [50]: > 100 µM (inactive)
GI50 [51]: > 100 µM (inactive)
GI50 [52]: > 100 µM (inactive)
GI50 [53]: > 100 µM (inactive)
GI50 [54]: > 100 µM (inactive)
GI50 [55]: > 100 µM (inactive)
GI50 [56]: > 100 µM (inactive)

CN1C(Cl)=NS(=O)(=O)c2ccccc21
GI50 [1]: > 100 µM (inactive)
GI50 [2]: 58.2 µM (inactive)
GI50 [3]: > 100 µM (inactive)
GI50 [4]: > 100 µM (inactive)
GI50 [5]: > 100 µM (inactive)
GI50 [6]: 16.9 µM (inactive)
GI50 [7]: 34 µM (inactive)
GI50 [8]: 43 µM (inactive)
GI50 [9]: > 100 µM (inactive)
GI50 [10]: > 100 µM (inactive)
GI50 [11]: > 100 µM (inactive)
GI50 [12]: > 100 µM (inactive)
GI50 [13]: > 100 µM
GI50 [14]: 35.7 µM (inactive)
GI50 [15]: > 100 µM (inactive)
GI50 [16]: > 100 µM (inactive)
GI50 [17]: > 100 µM (inactive)
GI50 [18]: > 100 µM (inactive)
GI50 [19]: > 100 µM (inactive)
GI50 [20]: > 100 µM (inactive)
GI50 [21]: > 100 µM (inactive)
GI50 [22]: > 100 µM (inactive)
GI50 [23]: > 100 µM (inactive)
GI50 [24]: > 100 µM (inactive)
GI50 [25]: > 100 µM (inactive)
GI50 [26]: > 100 µM (inactive)
GI50 [27]: > 100 µM (inactive)
GI50 [28]: 51.4 µM (inactive)
GI50 [29]: > 100 µM (inactive)
GI50 [30]: > 100 µM (inactive)
GI50 [31]: 92.7 µM (inactive)
GI50 [32]: 28 µM (inactive)
GI50 [33]: > 100 µM (inactive)
GI50 [34]: > 100 µM (inactive)
GI50 [35]: > 100 µM (inactive)
GI50 [36]: > 100 µM (inactive)
GI50 [37]: > 100 µM (inactive)
GI50 [38]: > 100 µM (inactive)
GI50 [40]: > 100 µM (inactive)
GI50 [41]: > 100 µM (inactive)
GI50 [42]: > 100 µM (inactive)
GI50 [43]: > 100 µM (inactive)
GI50 [57]: > 100 µM (inactive)
GI50 [44]: > 100 µM (inactive)
GI50 [45]: > 100 µM (inactive)
GI50 [46]: > 100 µM (inactive)
GI50 [47]: > 100 µM (inactive)
GI50 [48]: > 100 µM (inactive)
GI50 [58]: 18.7 µM (inactive)
GI50 [50]: > 100 µM (inactive)
GI50 [51]: > 100 µM (inactive)
GI50 [52]: > 100 µM (inactive)
GI50 [53]: > 100 µM (inactive)
GI50 [54]: > 100 µM (inactive)
GI50 [55]: > 100 µM (inactive)
GI50 [56]: > 100 µM (inactive)

Cc1ccc2c(c1)C(=O)/C(=N/Nc1ccc(Cl)cc1)CCO2
GI50 [1]: 37.1 µM (inactive)
GI50 [2]: > 100 µM (inactive)
GI50 [3]: 94.6 µM (inactive)
GI50 [4]: > 100 µM (inactive)
GI50 [5]: > 100 µM (inactive)
GI50 [6]: > 100 µM (inactive)
GI50 [7]: 46.7 µM (inactive)
GI50 [8]: 63.5 µM (inactive)
GI50 [9]: > 100 µM (inactive)
GI50 [10]: > 100 µM (inactive)
GI50 [11]: 54.1 µM (inactive)
GI50 [12]: 50.7 µM (inactive)
GI50 [13]: 60 µM
GI50 [14]: 38.9 µM (inactive)
GI50 [15]: > 100 µM (inactive)
GI50 [16]: 72.4 µM (inactive)
GI50 [17]: 26.4 µM (inactive)
GI50 [18]: 35.4 µM (inactive)
GI50 [19]: > 100 µM (inactive)
GI50 [20]: 28 µM (inactive)
GI50 [21]: 75 µM (inactive)
GI50 [22]: 35.2 µM (inactive)
GI50 [23]: 44 µM (inactive)
GI50 [24]: 58.7 µM (inactive)
GI50 [25]: > 100 µM (inactive)
GI50 [26]: 71 µM (inactive)
GI50 [27]: 65.3 µM (inactive)
GI50 [28]: 71.3 µM (inactive)
GI50 [59]: 46.7 µM (inactive)
GI50 [29]: > 100 µM (inactive)
GI50 [30]: > 100 µM (inactive)
GI50 [31]: 92.9 µM (inactive)
GI50 [32]: 56.1 µM (inactive)
GI50 [33]: > 100 µM (inactive)
GI50 [34]: > 100 µM (inactive)
GI50 [35]: 80.4 µM (inactive)
GI50 [36]: 69.7 µM (inactive)
GI50 [37]: > 100 µM (inactive)
GI50 [38]: 54.5 µM (inactive)
GI50 [39]: 36.3 µM (inactive)
GI50 [41]: > 100 µM (inactive)
GI50 [42]: 24.3 µM (inactive)
GI50 [43]: > 100 µM (inactive)
GI50 [57]: > 100 µM (inactive)
GI50 [44]: 21.2 µM (inactive)
GI50 [45]: 23.3 µM (inactive)
GI50 [46]: > 100 µM (inactive)
GI50 [47]: > 100 µM (inactive)
GI50 [48]: > 100 µM (inactive)
GI50 [49]: > 100 µM (inactive)
GI50 [58]: 44.8 µM (inactive)
GI50 [50]: > 100 µM (inactive)
GI50 [51]: 13.3 µM (inactive)
GI50 [52]: > 100 µM (inactive)
GI50 [53]: > 100 µM (inactive)
GI50 [54]: > 100 µM (inactive)
GI50 [55]: 50.1 µM (inactive)
GI50 [56]: > 100 µM (inactive)
